Reference: ChEMBL document CHEMBL1132595, “Acquisition of high-affinity, SH2-targeted ligands via a spatially focused library” (J Med Chem, 1999)

How the values were obtained:
[1] = molecular target: Tyrosine-protein kinase Fyn (Homo sapiens, UniProt P06241); assay: Dissociation constant for binding to SH2 domain of Fyn protein kinase
[2] = molecular target: Growth factor receptor-bound protein 2 (Homo sapiens, UniProt P62993); assay: Dissociation constant for binding to SH2 domain of Growth factor receptor bound protein 2, Grb2
Chain of Growth factor receptor-bound protein 2 (P62993 whole entry, the tested form may be a part): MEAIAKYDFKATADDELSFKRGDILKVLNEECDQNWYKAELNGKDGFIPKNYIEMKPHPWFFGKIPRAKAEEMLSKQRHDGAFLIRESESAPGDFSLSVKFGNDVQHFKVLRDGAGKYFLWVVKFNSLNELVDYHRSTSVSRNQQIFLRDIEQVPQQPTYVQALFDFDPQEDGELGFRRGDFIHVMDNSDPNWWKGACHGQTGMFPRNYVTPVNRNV

[3] = Dissociation constant for binding to SH2 domain of Phosphatidylinositol 3-kinase p85 subunit
[4] = Dissociation constant for binding to SH2 domain of Phospholipase C gamma
[5] = molecular target: Tyrosine-protein kinase Lck (Homo sapiens, UniProt P06239); assay: Dissociation constant for binding to SH2 domain of p56 lck tyrosine kinase
Chain of Tyrosine-protein kinase Lck (P06239 whole entry, the tested form may be a part): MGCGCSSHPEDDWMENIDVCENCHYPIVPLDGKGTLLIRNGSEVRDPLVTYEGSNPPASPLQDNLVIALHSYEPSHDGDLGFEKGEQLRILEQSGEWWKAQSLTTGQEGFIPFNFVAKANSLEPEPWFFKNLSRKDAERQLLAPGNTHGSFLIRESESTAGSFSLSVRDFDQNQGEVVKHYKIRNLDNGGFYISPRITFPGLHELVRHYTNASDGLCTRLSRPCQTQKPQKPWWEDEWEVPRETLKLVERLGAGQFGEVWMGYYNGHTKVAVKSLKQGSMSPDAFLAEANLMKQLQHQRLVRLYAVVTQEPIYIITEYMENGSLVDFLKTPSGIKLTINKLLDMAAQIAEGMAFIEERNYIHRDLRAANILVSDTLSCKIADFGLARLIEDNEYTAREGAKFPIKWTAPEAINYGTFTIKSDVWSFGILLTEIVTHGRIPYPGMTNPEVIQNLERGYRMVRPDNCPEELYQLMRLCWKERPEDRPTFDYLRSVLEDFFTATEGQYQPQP

Chain of Tyrosine-protein kinase Fyn (P06241 whole entry, the tested form may be a part): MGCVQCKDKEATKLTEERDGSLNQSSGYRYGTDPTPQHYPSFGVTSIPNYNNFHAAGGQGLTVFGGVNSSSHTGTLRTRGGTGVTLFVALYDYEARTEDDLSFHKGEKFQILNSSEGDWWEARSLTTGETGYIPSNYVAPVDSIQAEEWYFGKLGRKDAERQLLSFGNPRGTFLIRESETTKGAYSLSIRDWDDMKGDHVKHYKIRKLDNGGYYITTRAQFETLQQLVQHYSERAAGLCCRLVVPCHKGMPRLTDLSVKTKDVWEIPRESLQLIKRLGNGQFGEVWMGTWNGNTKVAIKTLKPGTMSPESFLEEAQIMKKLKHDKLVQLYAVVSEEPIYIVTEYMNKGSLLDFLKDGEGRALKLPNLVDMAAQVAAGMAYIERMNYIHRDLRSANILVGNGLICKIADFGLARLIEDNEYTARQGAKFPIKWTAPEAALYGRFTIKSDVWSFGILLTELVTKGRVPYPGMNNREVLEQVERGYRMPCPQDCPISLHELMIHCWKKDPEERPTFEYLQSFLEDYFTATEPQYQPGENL

SMILES	Kd [1]	Kd [2]	Kd [3]	Kd [4]	Kd [5]
O=C(O)Cc1cc(=O)oc2cc(O)ccc12	150 nM	11300 nM	9300 nM	4900 nM	35 nM
O=C(O)c1ccsc1	700 nM				260 nM
COc1ccc2c(CC(=O)O)cc(=O)oc2c1					2500 nM
O=C(O)c1cc(C(=O)O)cc(S(=O)(=O)O)c1	60 nM				220 nM
O=C(O)CNC(=O)c1ccc([N+](=O)[O-])cc1	240 nM				290 nM
COc1cc(Br)c(C(=O)O)cc1OC	500 nM				240 nM
